Measurements from US11072634B2, “Inhibitors of transglutaminases” (Zedira GmbH, priority 2016, dated 2021).
*1 amine or outer side, *2 acyl side, *3 side chain or, on linkers, in order; H or OH if unused. Where a SMILES comes first, the peptide text is derived from it. [ ]: non-standard residue; d: D form. The star is where a group is joined. X7 = O=C(CC[C@H](N[*:1])C(=O)[*:2])C(=O)NCc1ccccc1; X2 = CC(C)(C)NC(=O)C(=O)CC[C@H](N[*:1])C(=O)[*:2]; X4 = O=C(CC[C@H](N[*:1])C(=O)[*:2])C(=O)NC1CC1; Isonicotinoyl(3-COOH) = O=C(O)c1cnccc1C(=O)*; X5 = NC(=O)C(=O)CC[C@H](N[*:1])C(=O)[*:2]; d(aIle) = CC[C@H](C)[C@@H](N)C(=O)O; Pro(4-oxo) = O=C1CN[C@H](C(=O)O)C1; Chg = N[C@H](C(=O)O)C1CCCCC1; Tle = CC(C)(C)[C@H](N)C(=O)O; X3 = Cc1nc(C(=O)*)cs1

What was measured:
[1] = molecular target: T1, recombinant human factor XIII A-subunit (rhFXIII-A, plasma transglutaminase) (Homo sapiens, UniProt P00488); test: Inhibition of rec. human coagulation factor XIII (fluorescence, Abz-NE(CAD-DNP)EQVSPLILLK-OH); type: biochemical; conditions: Table 3, FXIII inhibitors; read-out: IC50 FXIII
T1 construct: His6; purchased Zedira 1027 (so in the source); T027)
T1 sequence (P00488 39-732 limits assumed): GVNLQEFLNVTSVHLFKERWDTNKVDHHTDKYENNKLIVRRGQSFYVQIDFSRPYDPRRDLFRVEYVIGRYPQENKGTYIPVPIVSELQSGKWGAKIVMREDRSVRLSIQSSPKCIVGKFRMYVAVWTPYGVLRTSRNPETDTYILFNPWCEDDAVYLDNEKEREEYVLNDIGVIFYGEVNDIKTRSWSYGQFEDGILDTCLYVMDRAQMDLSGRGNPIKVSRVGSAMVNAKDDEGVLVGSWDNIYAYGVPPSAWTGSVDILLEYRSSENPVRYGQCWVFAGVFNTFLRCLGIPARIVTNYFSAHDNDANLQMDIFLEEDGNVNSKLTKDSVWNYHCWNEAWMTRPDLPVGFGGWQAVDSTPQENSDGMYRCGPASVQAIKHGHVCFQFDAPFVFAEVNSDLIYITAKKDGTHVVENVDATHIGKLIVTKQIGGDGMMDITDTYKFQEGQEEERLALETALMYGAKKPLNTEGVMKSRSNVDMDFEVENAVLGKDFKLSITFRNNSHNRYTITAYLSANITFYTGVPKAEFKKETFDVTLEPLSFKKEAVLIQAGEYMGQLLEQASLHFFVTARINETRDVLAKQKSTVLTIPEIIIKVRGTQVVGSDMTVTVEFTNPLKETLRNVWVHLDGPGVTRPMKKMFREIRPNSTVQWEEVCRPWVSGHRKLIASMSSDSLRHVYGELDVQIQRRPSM
Experimental: Method for Inhibition Studies of Rec. Human Coagulation Factor XIII (Plasma Transglutaminase, rhFXIII-A)
(§1) 50 μg lyophilized His-tagged recombinant human factor XIII A-subunit (His6-rhFXIII, Zedira product 1027) is reconstituted in H2O (volume depends on original volume before lyophilization) resulting in a buffer containing 20 mM Tris-HCl, 150 mM NaCl, 1 mM EDTA, 1 mM DTT, 189 mg/ml maltodextrin, pH=7.5. The rhFXIII stock solution is diluted in buffer (50 mM Tris-HCl, 7.5 mM CaCl2, 150 mM NaCl, pH=7.4) to give a working solution of 59 U/ml (based on the amine-incorporation activity measured using transglutaminase activity assay #1036 (Zedira GmbH), described below).
(§2) A 10 mM inhibitor stock solution is prepared in DMSO, and from this a serial 1:2-fold dilution series is prepared also in DMSO. Each of the initial dilutions is subsequently diluted 1:50-fold with buffer (50 mM Tris-HCl, 7.5 mM CaCl2, 150 mM NaCl, pH=7.4) to yield the final working dilutions containing 2% (v/v) DMSO.
(§3) 15 μl of inhibitor working dilution are added per well of a 96 well microtiter plate. As control, 15 μl of a 2% (v/v) DMSO solution prepared using the buffer mentioned above are added per well.
(§4) 480 μl of His6-rhFXIII working solution and 120 μl human alpha thrombin (0.5 NIH units/μl) are added to 10.8 ml assay buffer (50 mM Tris-HCl, 7.5 mM CaCl2, 150 mM NaCl, 5 mM DTT, 13.4 mM glycine methylester, 50 μM Abz-NE(CAD-DNP)EQVSPLILLK-OH, (Zedira product A101; patent No.: EP 1781807B1), pH=7.4). From this master-mix solution, 285 μl are added per well containing the inhibitor. Increase in fluorescence is measured using […] and λem=418 nm at 37° C. for 35 min. A slope of the increase in fluorescence between 20 and 30 min is calculated for determination of the IC50 value (inhibitor concentration at which 50% of the initial FXIII activity is blocked).
(§5) Analysis of enzymatic activity is performed by calculation of the slope of an increase in fluorescence intensity. IC50 values are calculated by plotting the enzymatic activity (as percentage from control containing 2% DMSO instead of inhibitor) against the inhibitor concentration. IC50 is defined as the inhibitor concentration blocking 50%) of initial enzyme activity.

TG2 = molecular target: T2, TG2 (Homo sapiens, UniProt P21980); test: FXIII assay format using TG2 instead of FXIII (selectivity of FXIIIa blockers); type: biochemical; conditions: Table 3, selectivity with respect to TG2; read-out: IC50 TG2
T2 sequence (P21980 1-687): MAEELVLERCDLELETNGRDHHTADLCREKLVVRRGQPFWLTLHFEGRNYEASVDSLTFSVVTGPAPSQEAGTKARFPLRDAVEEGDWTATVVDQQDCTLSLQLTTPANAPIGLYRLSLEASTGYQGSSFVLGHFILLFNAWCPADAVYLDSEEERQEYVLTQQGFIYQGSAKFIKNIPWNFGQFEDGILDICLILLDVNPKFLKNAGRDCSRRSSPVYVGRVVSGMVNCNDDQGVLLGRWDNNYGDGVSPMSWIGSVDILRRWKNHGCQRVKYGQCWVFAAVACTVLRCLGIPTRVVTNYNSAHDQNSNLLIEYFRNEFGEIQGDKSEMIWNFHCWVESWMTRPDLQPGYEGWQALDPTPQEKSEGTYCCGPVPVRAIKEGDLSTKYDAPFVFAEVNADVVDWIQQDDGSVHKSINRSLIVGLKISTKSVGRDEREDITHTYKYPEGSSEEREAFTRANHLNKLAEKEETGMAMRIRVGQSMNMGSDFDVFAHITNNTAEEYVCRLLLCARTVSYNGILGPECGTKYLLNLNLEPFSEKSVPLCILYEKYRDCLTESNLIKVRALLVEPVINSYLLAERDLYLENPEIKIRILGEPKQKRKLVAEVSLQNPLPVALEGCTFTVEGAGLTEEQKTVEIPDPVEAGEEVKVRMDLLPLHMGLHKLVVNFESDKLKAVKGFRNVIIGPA
Experimental: as §1, §2, §3, §4
This assay was also used to determine selectivity of inhibitors preferentially blocking FXIIIa by using TG2 instead of FXIII.
as §5

| SMILES | IC50 [1] [µM] | IC50 (TG2) [µM] |
| --- | --- | --- |
| Cc1nc(C(=O)N[C@@H](CCC(=O)C(=O)NC2CC2)C(=O)N[C@H](C(=O)N2CC(=O)C[C@H]2C(=O)N[C@H](C(=O)N[C@H](C(N)=O)C2CCCCC2)C2CCCCC2)C(C)(C)C)cs1 [Compound E32, (S)—N1-((S)-1-((S)-2-((S)-2-((S)-2-amino-1-cyclohexyl-2-oxoethylamino)-1-cyclohexyl-2-oxoethylcarbamoyl)-4-oxopyrrolidin-1-yl)-3,3-dimethyl-1-oxobutan-2-yl)-N6-cyclopropyl-2-(2-methylthiazole-4-carboxamido)-5-oxohexanediamide] (X3-[X4][Tle][Pro(4-oxo)][Chg][Chg]-NH2) | 2.65 | 1 |
| CC[C@H](C)[C@@H](NC(=O)[C@H](CC(C)C)NC(=O)[C@H](CCC(=O)C(=O)NC1CC1)NC(=O)c1csc(C)n1)C(=O)N[C@@H](CC(C)C)C(=O)N1CCC[C@H]1C(=O)N[C@@H](Cc1c[nH]c2ccccc12)C(=O)N1CCC[C@H]1C(N)=O [Compound E33, (S)—N1-((S)-1-((2R,3S)-1-((S)-1-((S)-2-((S)-1-((S)-2-carbamoylpyrrolidin-1-yl)-3-(1H-indol-3-yl)-1-oxopropan-2-ylcarbamoyl)pyrrolidin-1-yl)-4-methyl-1-oxopentan-2-ylamino)-3-methyl-1-oxopentan-2-ylamino)-4-methyl-1-oxopentan-2-yl)-N6-cyclopropyl-2-(2-methylthiazole-4-carboxamido)-5-oxohexanediamide] (X3-[X4]L[d(aIle)]LPWP-NH2) | 16 | 11.5 |

The remaining lines, values ahead:

| IC50 [1] [µM] | IC50 (TG2) [µM] | SMILES |
| --- | --- | --- |
| 0.85 | > 20 | CC(C)(C)[C@H](NC(=O)[C@H](CCC(=O)C(=O)NCc1ccccc1)NC(=O)c1ccncc1C(=O)O)C(=O)N1CC(=O)C[C@H]1C(=O)N[C@H](C(=O)N[C@H](C(N)=O)C1CCCCC1)C1CCCCC1 [Compound E29, 4-((S)-1-((S)-1-((S)-2-((S)-2-((S)-2-amino-1-cyclohexyl-2-oxoethylamino)-1-cyclohexyl-2-oxoethylcarbamoyl)-4-oxopyrrolidin-1-yl)-3,3-dimethyl-1-oxobutan-2-ylamino)-6-(benzylamino)-1,5,6-trioxohexan-2-ylcarbamoyl)nicotinic acid] ({Isonicotinoyl(3-COOH)}-[X7][Tle][Pro(4-oxo)][Chg][Chg]-NH2) |
| 2.9 | > 20 | CC(C)(C)NC(=O)C(=O)CC[C@H](NC(=O)c1ccncc1C(=O)O)C(=O)N[C@H](C(=O)N1CC(=O)C[C@H]1C(=O)N[C@H](C(=O)N[C@H](C(N)=O)C1CCCCC1)C1CCCCC1)C(C)(C)C [Compound E30, 4-((S)-1-((S)-1-((S)-2-((S)-2-((S)-2-amino-1-cyclohexyl-2-oxoethylamino)-1-cyclohexyl-2-oxoethylcarbamoyl)-4-oxopyrrolidin-1-yl)-3,3-dimethyl-1-oxobutan-2-ylamino)-6-(tert-butylamino)-1,5,6-trioxohexan-2-ylcarbamoyl)nicotinic acid] ({Isonicotinoyl(3-COOH)}-[X2][Tle][Pro(4-oxo)][Chg][Chg]-NH2) |
| 5 | > 20 | CC(C)(C)[C@H](NC(=O)[C@H](CCC(=O)C(N)=O)NC(=O)c1ccncc1C(=O)O)C(=O)N1CC(=O)C[C@H]1C(=O)N[C@H](C(=O)N[C@H](C(N)=O)C1CCCCC1)C1CCCCC1 [Compound E31, 4-((S)-6-amino-1-((S)-1-((S)-2-((S)-2-((S)-2-amino-1-cyclohexyl-2-oxoethylamino)-1-cyclohexyl-2-oxoethylcarbamoyl)-4-oxopyrrolidin-1-yl)-3,3-dimethyl-1-oxobutan-2-ylamino)-1,5,6-trioxohexan-2-ylcarbamoyl)nicotinic acid] ({Isonicotinoyl(3-COOH)}-[X5][Tle][Pro(4-oxo)][Chg][Chg]-NH2) |
